Test results reported in PMC11483378, “Triazole-Based Thiamine Analogues as Inhibitors of Thiamine Pyrophosphate-Dependent Enzymes: 1,3-Dicarboxylate for Metal Binding” (ACS Omega, 2024).

Test system: porcine liver esterase
Experiment: Esterase treatment with UPLC-HRMS analysis
Type: in vitro ADME
Protocol: Esters 13b and 15b were subjected to esterase treatment (porcine liver esterase) at 37 °C and pH 7.4 for 2 h, and then the reaction mixtures were analyzed using UPLC-HRMS (Figure 4).[24] The molecular mass of the new products formed was determined by MS and confirmed that they were the expected carboxylic acids. […] The second hydrolysis is presumably slower because the substrate 17 is anionic, whereas for the first hydrolysis, the substrate 13b is neutral.[19],[25],[26] When 13b enters a cell through passive diffusion, the intracellular esterases will begin to hydrolyze the ester groups to give first 17 and then 14b. Since both 17 and 14b are negatively charged under physiological conditions, they will be unable to diffuse back out of the cell and so should accumulate there.[27] Diester 13b is more hydrophobic than triazole hydroxamate 4 (c Log D: 0.8 vs −0.5) and so should diffuse into cells more readily. […] Thus, we anticipate that 13b will be as useful as 4 in probing the role of vitamin B1 in cells.
Figure 4 UPLC-HRMS analysis of the esterase treatment. […] Compound (retention time/min): diester 13b (1.30), dicarboxylate 14b (0.51), monoester 15b (0.99), monocarboxylate 16b (0.51), and intermediate 17 (0.67).

Row | SMILES | outcome of esterase treatment (37 °C, pH 7.4, 2 h) | outcome of esterase treatment (after 24 h)
1 | COC(=O)C(CCCc1cn(Cc2cnc(C)nc2N)nn1)C(=O)OC [13b] | the major product was monoester monocarboxylate 17 | the only product seen was dicarboxylate 14b
2 | COC(=O)CCCCc1cn(Cc2cnc(C)nc2N)nn1 [15b] | completely hydrolyzed into monocarboxylate 16b | –
